This is an account of results in PMC12560079, “Cytotoxic Triterpene Glycosides from Mexican Sea Cucumber Holothuria inornata” (Journal of Natural Products, 2025).

Like-named read-outs stand apart in the source and are kept apart here. Where only a bound is given, the exact number is not on record here.

Data set [1] concerns cancer cell lines U251, PC-3, K562, HCT-15, MCF-7, SKLU-1. Description: SRB cytotoxicity assay, panel of six cancer cell lines. In kind it is cell-based, human. Conditions: for growth inhibition (cytotoxic activity) of cancer cell lines: 25 μg/mL, six cell lines, result in words (Figure 1). On the procedure:
(§1) Cytotoxicity was evaluated based on the percentage of cell growth inhibition. The cancer cell lines were obtained from the National Cancer Institute (NCI, Bethesda, MD). The study utilized human cancer cell lines derived from central nervous system glia (U251), prostate (PC-3), leukemia (K562), colon (HCT-15), breast (MCF-7), and lung (SKLU). Each cell line was maintained in RPMI 1640 medium supplemented with fetal bovine serum (10%), L-glutamate (2.0 mM), 10,000 units/mL penicillin G, […] streptomycin sulfate, 25 mg/mL amphotericin B and 1% nonessential amino acids. Cytotoxicity was assessed by treating cancerous cells with the extract, the saponin fraction, and the major isolated compounds, all of which were solubilized in ultrapure water (18.2 MΩ) and tested at a concentration of 25 μg/mL. For the determination of IC50 values, the same cancer cell lines were evaluated and had the same treatment, while the range of concentrations was 25, 12.5, 6.5, 5.0, 2.5, and 1.25 μg/mL in triplicate wells for each concentration; commercially formulated mitoxantrone, used as a water-soluble chemotherapeutic drug, was used as a positive control, and ultrapure water was used as a negative control. The resulting data obtained from the assay for each cell line were analyzed using nonlinear regression to calculate IC50 using GraphPad Prism 10.5.0 (San Diego, CA, USA). The percentage of cell growth inhibition was determined by using the protein-binding dye sulforhodamine B (SRB) in a microculture assay. Cells were harvested from culture flasks and seeded into 96-well plates at a density of 5,000 to 10,000 cells per well, maintaining the same temperature and humidity conditions as during culture incubation. The test compounds were then added, and cells were exposed for 48 h. After incubation, cells were fixed in situ by adding 50 μL of cold 50% trichloroacetic acid and incubating at 4 °C for 1 h. The plates were then washed with Milli-Q water, air-dried at room temperature, and stained with a 0.4% SRB solution. Excess SRB was removed by washing with 1% aqueous acetic acid. The plates were air-dried, and the bound dye was solubilized with 100 μL of a 10 mM unbuffered Tris base. The plates were then shaken for 10 min, and absorbance was measured at 515 nm using a microplate spectrophotometer.

Data set [2] has as its system human colorectal adenocarcinoma (HCT-15). The experiment in a line: SRB cytotoxicity assay, HCT-15. In kind it is cell-based. Conditions: SRB method, 48 h exposure, ± SD, read-out: Cell Line IC50 HCT-15. The method, then:
as §1, with “The plates were then washed with Milli-Q water, air-dried at room temperature, and stained with a 0.4% SRB solution. Excess SRB was removed by washing with 1% aqueous acetic acid. The plates were air-dried, and the bound dye was solubilized with 100 μL of a 10 mM unbuffered Tris base.” left out

Data set [3] concerns human mammary adenocarcinoma (MCF-7). The experiment in a line: SRB cytotoxicity assay, MCF-7. The data set is classed as cell-based. Conditions: MCF7, SRB method, 48 h exposure, ± SD, read-out: Cell Line IC50 MCF-7. The method, then:
as §1, with “The plates were then washed with Milli-Q water, air-dried at room temperature, and stained with a 0.4% SRB solution. Excess SRB was removed by washing with 1% aqueous acetic acid. The plates were air-dried, and the bound dye was solubilized with 100 μL of a 10 mM unbuffered Tris base.” left out

Data set [4] relates to human chronic myelogenous leukemia (K562). The experiment in a line: SRB cytotoxicity assay, K562. In kind it is cell-based. Conditions: SRB method, 48 h exposure, ± SD, read-out: Cell Line IC50 K562. On the procedure: as §1, with “The plates were then washed with Milli-Q water, air-dried at room temperature, and stained with a 0.4% SRB solution. Excess SRB was removed by washing with 1% aqueous acetic acid. The plates were air-dried, and the bound dye was solubilized with 100 μL of a 10 mM unbuffered Tris base.” left out

Data set [5] concerns human prostatic adenocarcinoma (PC-3). Description: SRB cytotoxicity assay, PC-3. The data set is classed as cell-based. Conditions: SRB method, 48 h exposure, ± SD, read-out: Cell Line IC50 PC-3. On the procedure:
as §1, with “The plates were then washed with Milli-Q water, air-dried at room temperature, and stained with a 0.4% SRB solution. Excess SRB was removed by washing with 1% aqueous acetic acid. The plates were air-dried, and the bound dye was solubilized with 100 μL of a 10 mM unbuffered Tris base.” left out

Data set [6] concerns human lung adenocarcinoma (SKLU-1). The experiment in a line: SRB cytotoxicity assay, SKLU-1. In kind it is cell-based. To be noted: SK-LU-1, SRB method, 48 h exposure, ± SD, read-out: Cell Line IC50 SKLU-1. On the procedure:
as §1, with “The plates were then washed with Milli-Q water, air-dried at room temperature, and stained with a 0.4% SRB solution. Excess SRB was removed by washing with 1% aqueous acetic acid. The plates were air-dried, and the bound dye was solubilized with 100 μL of a 10 mM unbuffered Tris base.” left out

The test system of data set [7] is human glioblastoma (U251). The experiment in a line: SRB cytotoxicity assay, U251. The data set is classed as cell-based. To be noted: U-251, SRB method, 48 h exposure, ± SD, read-out: Cell Line IC50 U251. On the procedure: as §1, with “The plates were then washed with Milli-Q water, air-dried at room temperature, and stained with a 0.4% SRB solution. Excess SRB was removed by washing with 1% aqueous acetic acid. The plates were air-dried, and the bound dye was solubilized with 100 μL of a 10 mM unbuffered Tris base.” left out

[8] abbreviates: Homo sapiens, span over the evaluated cell lines, SRB method, read-out: IC50 values across the tested cancer cell lines.

Consider `CC(=O)OC(C)(C)CCCC1(C)OC(=O)C23C(O)C=C4C(CCC5C4(C)CCC(OC4OCC(OS(=O)(=O)O)C(O)C4OC4OC(C)C(O)C(O)C4O)C5(C)C)C2(C)CCC13O` [Inornatoside A (1), 25-acetoxy-3-O-(β-D-quinovopyranosyl-(1→2)-4-O-sodiumsulfate-β-D-xylopyranoside)-holost-9(11)-ene-3β,12α,17α-triol], for which the “growth inhibition (cytotoxic activity) of cancer cell lines” value (“growth inhibition (cytotoxic activity)” for short) in data set [1] (SRB method) is on record as “significantly more active than holothurin B (7)”. The IC50 was 3530 to 5350 nM in data set [1] (setting [8]); 4690 ± 10 nM in data set [2]; greater than 50000 nM in data set [3]; 4240 ± 20 nM in data set [4]; 5350 ± 10 nM in data set [5]; 3650 ± 20 nM in data set [6]. Besides, in data set [7], the IC50 turned out to be 3530 ± 130 nM.

`COC1C(O)C(CO)OC(OC2C(O)C(CO)OC(OC3C(C)OC(OC4C(OC5CCC6(C)C7=CC(O)C89C(=O)OC(C)(CCCC(C)(C)OC(C)=O)C8(O)CCC9(C)C7CCC6C5(C)C)OCC(OS(=O)(=O)O)C4O)C(O)C3O)C2O)C1O` [Inornatoside B (2), 25-acetoxy-3-O-(3-O-methyl-β-D-glucopyranosyl-(1→3)-β-D-glucopyranosyl-(1→4)-β-D-quinovopyranosyl-(1→2)-4-O-sodiumsulfate-β-D-xylopyranoside)-holost-9(11)-ene-3β,12α,17α-triol]: the “growth inhibition (cytotoxic activity)” value in data set [1] (SRB method) was “significantly more active than holothurin B (7)”. Further, the concentration for half-maximal inhibition (IC50) in data set [1] (Homo sapiens, span over MCF-7 and SKLU-1 cell lines, read-out: IC50 values against MCF-7 and SKLU-1) is 470 to 500 nM; in data set [1] (setting [8]) it was 470 to 1040 nM; in data set [1] (span over the evaluated cell lines, SRB method, read-out: IC50 values across the tested cancer cell lines) it was roughly 500 nM; in data set [2], 1040 ± 10 nM; in data set [3], 470 ± 40 nM; in data set [4] it was 480 ± 10 nM. In addition, the IC50 in data set [5] is 490 ± 10 nM; in data set [6], 500 ± 10 nM; in data set [7], 540 ± 10 nM.

With `O=C1c2c(O)ccc(O)c2C(=O)c2c(NCCNCCO)ccc(NCCNCCO)c21` [Mitoxantrone, reference compound], the IC50 in data set [1] (setting [8]) was 550 to 1160 nM; in data set [2], 750 ± 40 nM; in data set [3], 720 ± 10 nM; in data set [4], 650 ± 20 nM; in data set [5] it was 630 ± 40 nM; in data set [6], 1160 ± 150 nM. Besides, the IC50 in data set [7] came to 550 ± 40 nM.

For `CC1OC(OC2C(OC3CCC4(C)C5=CC(O)C67C(=O)OC(C)(C8CCC(C)(C)O8)C6(O)CCC7(C)C5CCC4C3(C)C)OCC(OS(=O)(=O)O)C2O)C(O)C(O)C1O` (centres unmarked) [holothurin B (7), holothurin B], in data set [1] (SRB method), the “growth inhibition (cytotoxic activity)” value was “did not exhibit high sensitivity”.
